Patent publication US20230045522A1, “COMPOSITIONS AND METHODS TO MODULATE GLUCOSE HOMEOSTASIS” (The Board of Supervisors of Louisiana State University and …, priority 2019, published 2023)
Residues, ends and D or L forms follow the SMILES beside them. *: point of attachment. Cbz = O=C(OCc1ccccc1)*

Assays:
C2C12 myotubes [1] = experiment: Uptake of bioactives into C2C12 myotubes treated with PMI-5011 (UPLC/MS); settings: PMI-5011 10 μg/mL
Method: (§1) C2C12 myotubes were incubated with vehicle control (DMSO) or PMI-5011 (10 μg/mL) for 1, 6, or 16 h as indicated. At each time point, (A) the medium and washes were collected at neutral pH, (B) this was followed by collection of surface bound compounds at acidic pH and cell lysates that were separated into soluble (Lysate) and insoluble fractions (Pellet) for analysis of content by UPLC/MS.
(§2) Murine C2C12 (ATCC; #CRL-1771) or rat L6 myoblasts (ATCC, #CRL-1458) were cultured in DMEM, high glucose (25 mM) with 10% FBS, 2 mM glutamine, and antibiotics (100 units/mL penicillin G and 100 μg/mL streptomycin) in a humidified chamber at 37° C. and 5% CO2. To obtain fully differentiated myotubes, the medium was exchanged for DMEM, high glucose with 2% horse serum, glutamine, and antibiotics when the myoblasts reached confluence. The medium was replaced every 48 hours, and the cells were maintained in this medium until fully differentiated, when the medium was exchanged for DMEM, low glucose (5 mM) with 2% horse serum. The myotubes were fully formed by the fourth day post-induction. The experiments analyzing the impact of each experimental material on insulin signaling in the presence of palmitate-induced insulin resistance were performed as described previously.^31 To determine uptake of bioactives into the myotubes, the cells were treated with PMI-5011 (10 μg/mL) for 0, 1, or 16 h prior to medium collection. At each time point, the cells were thoroughly rinsed with D-Hanks, pH 7.4 at 4° C., followed by incubation with D-Hanks buffer, pH 4.0 at 4° C. for 30 min with gentle rocking to remove surface-bound compounds. Cells were then collected in denaturing buffer containing 50 mM Tris-Cl, pH 7.4 with 150 mM NaCl, 1 mM EDTA, 1% Igepal, 0.5% Na-deoxycholate, 0.1% SDS, protease inhibitors (1 μM PMSF, 10 μg/mL aprotinin, 1 μg/mL pepstatin, 5 μg/mL leupeptin). The harvested cells were sonicated on ice and the supernatant and pellet were collected by centrifugation at 13,400×g for 10 min at 4° C.
(§3) UPLC/MS Analysis of Cell Preparations. […]

AMPK = AMPK Thr172 phosphorylation in C2C12 myotubes (immunoblot); type: cell-based, murine; settings: for increase in phosphorylation of AMPK (phospho-AMPK to total AMPK, fold over 0-time): 1 hour of exposure, PMI-5011 10 μg/ml, AICAR 0.5 mM, metformin 2 mM
Source text: Results shown are representative of three independent experiments.

C2C12 myotubes [2] = settings: mouse, 10 μg/mL
Method: as §1, §2, §3

[3] = Blood glucose in very high fat diet obese insulin-resistant mice, 6 h after gavage; type: in vivo, C57BL/6J male mice; settings: 6 hour treatment, PMI-5011 500 mg/kg, KOE 500 mg/kg, KOF 100 mg/kg, 2 at 100 or 300 mg/kg, metformin 300 mg/kg
Method: (A) C57BL/6J male mice were fed a 60% kcal fat diet for 16 weeks prior to a 6 h treatment with labrasol (vehicle), metformin, PMI-5011, reconstituted PMI-5011 (RE=KOE+KOF), KOE, KOF, synthetic 2. […] Statistical significance is reported as mean−/+standard deviation, compared to (vehicle) control.
(A) Absolute (mg/dL) and (B) percent change in blood glucose levels from baseline for each treatment group six hours after treatment. […] Statistical significance is reported as mean−/+standard deviation, compared to (vehicle) control; ns, not significant; *p<0.05; ** p<0.01; *** p<0.001.
Glucose Homeostasis. […] To address this, C57BL/6J male mice were fed a very high fat diet (60% kcal fat, VHFD) over 16 weeks to induce obesity, prior to testing the ability of PMI-5011 (500 mg/kg), KOE (500 mg/kg), KOF (100 mg/kg), and purified 2 at 100 or 300 mg/kg body weight to alter blood glucose levels (FIG. 4). Metformin (300 mg/kg) was used as a positive control.
Animal Experiments. Male C57BL/6J mice were obtained from Jackson Laboratories (Bar Harbor, Me.). […] The animals were housed singly with a 12 h light-dark cycle at 24° C. […] Body weight was measured weekly. […]
Blood and Tissue Chemistry. Fasting glucose levels were measured in whole blood using a Breeze2 glucometer (Bayer, Leverkusen, Germany). […]

LKB1 = LKB1 Ser428 phosphorylation in skeletal muscle of mice; type: in vivo, C57BL/6J mice; settings: gavage; compared to vehicle gavaged mice
Method: Tubulin or β-actin are included as a loading control.
Male C57BL/6J mice were obtained from Jackson Laboratories (Bar Harbor, Me., USA). All animal experiments were approved by the Rutgers University Animal Care and Use Committee (Protocol #04-023) and were in compliance with the NIH Guide for the Care and Use of Laboratory. The animals were housed singly with a 12 hour light-dark cycle at 24° C. At 4 weeks of age, the mice were placed on a very high fat diet (60 kcal % fat, D12492, Research Diets) for 16 weeks. Body weight was measured weekly. […] Blood glucose levels were assayed at baseline and each hour thereafter up to 6 hours post gavage. The mice were euthanized and tissues were collected for analysis at 6 hours after gavage.
C2C12 myotube lysates were prepared by sonication in 20 mM Tris pH 7.4, 1% Igepal CA630, 5 mM EDTA with 10 mM Na4P2O7, 100 mM NaF, 2 mM Na3VO4, 1 mM PMSF, 10 μg/ml aprotinin, 1 μg/ml pepstatin, and 5 μg/ml leupeptin. The tissue and cell lysates were centrifuged at 14,000×g for 10 minutes at 4° C. Protein concentrations were determined using BCA assays (Thermo Fisher Scientific, Rockford, Ill., USA) and the resulting supernatants (50 μg) were resolved by 10% SDS-PAGE and subjected to immunoblotting. […] Image J software was used for quantification of the western blot band intensities.

SIRT1 = SIRT1 protein expression in skeletal muscle of mice; type: in vivo, C57BL/6J mice; settings: gavage
Method: Male C57BL/6J mice were obtained from Jackson Laboratories (Bar Harbor, Me., USA). […] The animals were housed singly with a 12 hour light-dark cycle at 24° C. At 4 weeks of age, the mice were placed on a very high fat diet (60 kcal % fat, D12492, Research Diets) for 16 weeks. Body weight was measured weekly. […] Blood glucose levels were assayed at baseline and each hour thereafter up to 6 hours post gavage. The mice were euthanized and tissues were collected for analysis at 6 hours after gavage.
The tissue and cell lysates were centrifuged at 14,000×g for 10 minutes at 4° C. Protein concentrations were determined using BCA assays (Thermo Fisher Scientific, Rockford, Ill., USA) and the resulting supernatants (50 μg) were resolved by 10% SDS-PAGE and subjected to immunoblotting. Nitrocellulose membranes were incubated with antibodies for 1-2 hours at RT or overnight at 4° C. Image J software was used for quantification of the western blot band intensities.

With `O=c1cc(Oc2ccc(O)cc2)oc2cc(O)cc(O)c12` [6-demethoxycapillarisin] the “detection in the pellets of treated cells” value (C2C12 myotubes [1]; insoluble fraction) was “not detected” and the “detection in the samples from treated cells” value (C2C12 myotubes [1]; not quantified) was “detected”.
In the case of `NC(=O)c1ncn([C@@H]2O[C@H](COP(=O)(O)O)[C@@H](O)[C@H]2O)c1N` [AICAR, 5-Aminoimidazole-4-carboxamide ribonucleotide], the “increase in phosphorylation of AMPK (phospho-AMPK to total AMPK, fold over 0-time)” value (AMPK) is reported as 2.4 fold.
In the case of `COc1ccc(CCC(=O)c2ccc(O)cc2O)cc1` [Compound 2, 2′,4′-dihydroxy-4-methoxydihydrochalcone], the “detectability of 2 after 16 hours” value (C2C12 myotubes [2]) is reported as “undetectable after 16 hours”.
For `CC(C)C[C@@H](C=O)NC(=O)[C@H](CC(C)C)NC(=O)[C@H](CC(C)C)NC(=O)OCc1ccccc1` [MG132] (Cbz-Leu-Leu-Leu-aldehyde), the “AMPK phosphorylation at Thr172 under proteasome inhibition” value (AMPK; MG132 10 μM, up to 4 hours) was “reduced AMPK phosphorylation”.
With `CN(C)C(=N)N=C(N)N` [metformin] the blood glucose levels [3] was “significantly reduced”, the “increase in phosphorylation of AMPK (phospho-AMPK to total AMPK, fold over 0-time)” value (AMPK) was 1.4 fold and the “phosphorylation of LKB1 Ser428 in skeletal muscle” value (LKB1) was “stimulate LKB1 Ser428 phosphorylation”. For the same compound, the “protein expression of SIRT1” value (SIRT1) was “did not observe an increase”.
